Data reported in US7138361B2, “Herbicidal heterocycles” (E. I. du Pont de Nemours and Company, priority 2000, dated 2006).

What was measured:
Type in all cases: in vivo
[1] = test system: Surinam grass (Brachiaria decumbens); experiment: Test B preemergence
Method in brief: (§1)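 Seeds were planted and sprayed preemergence with test chemical in a non-phytotoxic solvent mixture containing surfactant; postemergence plants (2 to 18 cm, 1- to 4-leaf stage) received the same formulation. Greenhouse hold 13 to 15 days, then visual rating versus untreated controls on a 0–100 scale (0 no effect, 100 complete control).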

[2] = test system: barnyardgrass (Echinochloa crus-galli); experiment: Test B preemergence
Method in brief: as §1

[3] = test system: cocklebur (Xanthium strumarium); experiment: Test B preemergence
Method in brief: as §1

[4] = test system: corn (Zea mays); experiment: Test B preemergence
Method in brief: as §1

[5] = test system: crabgrass (Digitaria sanguinalis); experiment: Test B preemergence
Method in brief: as §1

[6] = test system: giant foxtail (Setaria faberii); experiment: Test B preemergence
Method in brief: as §1

[7] = test system: lambsquarters (Chenopodium album); experiment: Test B preemergence
Method in brief: as §1

[8] = test system: morning glory (Ipomoea hederacea); experiment: Test B preemergence
Method in brief: as §1

[9] = test system: pigweed (Amaranthus retroflexus); experiment: Test B preemergence
Method in brief: as §1

[10] = test system: rice (Oryza saliva); experiment: Test B preemergence
Method in brief: as §1

[11] = test system: velvetleaf (Abutilon theophrasti); experiment: Test B preemergence
Method in brief: as §1

[12] = test system: Surinam grass (Brachiaria decumbens); experiment: Test C preemergence; details: for Plant response rating, Surinam grass: scale 0 to 100, 0 no effect, 100 complete control; for Plant response rating (0 to 100), Surinam grass: preemergence, visual evaluation after 12 to 14 days
Method in brief: (§2)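 Plants held in greenhouse for 12–14 days post-application are scored by eye against controls on a 0–100 control scale. Application timing: preemergence on sown seed, or postemergence on 2–18 cm plants.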

[13] = test system: bermudagrass (Cynodon dactylon); experiment: Test C preemergence; details: for Plant response rating, Bermudagrass: scale 0 to 100, 0 no effect, 100 complete control; for Plant response rating (0 to 100 where 0 is no effect and 100 is complete control), Bermudagrass: preemergence, visual evaluation after 12 to 14 days
Method in brief: as §2

[14] = test system: cocklebur (Xanthium strumarium); experiment: Test C preemergence; details: for Plant response rating, Cocklebur: scale 0 to 100, 0 no effect, 100 complete control; for Plant response rating (0 to 100), Cocklebur: preemergence, visual evaluation after 12 to 14 days
Method in brief: as §2

[15] = test system: crabgrass (Digitaria sanguinalis); experiment: Test C preemergence; details: for Plant response rating, Crabgrass: scale 0 to 100, 0 no effect, 100 complete control; for Plant response rating (0 to 100), Crabgrass: preemergence, visual evaluation after 12 to 14 days
Method in brief: as §2

[16] = test system: giant foxtail (Setaria faberii); experiment: Test C preemergence; details: for Plant response rating, Foxtail, Giant: scale 0 to 100, 0 no effect, 100 complete control; for Plant response rating (0 to 100), Foxtail, Giant: preemergence, visual evaluation after 12 to 14 days
Method in brief: as §2

[17] = test system: kochia (Kochia scoparia); experiment: Test C preemergence; details: for Plant response rating, Kochia: scale 0 to 100, 0 no effect, 100 complete control; for Plant response rating (0 to 100), Kochia: preemergence, visual evaluation after 12 to 14 days
Method in brief: as §2

[18] = test system: pigweed (Amaranthus retroflexus); experiment: Test C preemergence; details: for Plant response rating, Pigweed: scale 0 to 100, 0 no effect, 100 complete control; for Plant response rating (0 to 100), Pigweed: Rate 500 g/ha, visual evaluation after 12 to 14 days
Method in brief: as §2

[19] = test system: soybean (Glycine max); experiment: Test C preemergence; details: for Plant response rating, Soybean: scale 0 to 100, 0 no effect, 100 complete control; for Plant response rating (0 to 100), Soybean: Rate 500 g/ha, visual evaluation after 12 to 14 days
Method in brief: as §2

[20] = test system: woolly cupgrass (Eriochloa villosa); experiment: Test C preemergence; details: for Plant response rating, Cupgrass, Woolly: scale 0 to 100, 0 no effect, 100 complete control; for Plant response rating (0 to 100), Cupgrass, Woolly: preemergence, visual evaluation after 12 to 14 days
Method in brief: as §2

[21] = test system: Nightshade; experiment: Test C preemergence; details: Rate 500 g/ha, visual evaluation after 12 to 14 days
[22] = test system: Sunflower; experiment: Test C preemergence; details: Rate 250 g/ha, scale 0 to 100, 0 no effect, 100 complete control
[23] = Preemergence, Rate 500 g/ha, scale 0 to 100, 0 no effect, 100 complete control
[24] = preemergence, Rate 125 g/ha, scale of 0 to 100 where 0 is no effect and 100 is complete control, 13 to 15 days

CC(C)(C)c1ccn(C2CCN(c3cccc(OC(F)F)c3)C2=O)n1 (centres unmarked) [Compound 76]
90: Plant response rating, Rice [10, 23] | Plant response rating (0 to 100), Foxtail, Giant ([16]; Rate 500 g/ha)
80: Plant response rating, Surinam grass [1, 24] | Plant response rating (0 to 100), Surinam grass ([12]; Rate 250 g/ha)
20: Plant response rating (0 to 100), Cocklebur ([14]; Rate 250 g/ha) | Plant response rating (0 to 100), Cocklebur ([14]; Rate 500 g/ha) | Plant response rating (0 to 100), Foxtail, Giant ([16]; Rate 250 g/ha)
60: Plant response rating, Surinam grass ([12]; Rate 125 g/ha) | Plant response rating (0 to 100), Nightshade [21]
70: Plant response rating, Corn [4, 23] | Plant response rating, Rice [10, 24]
0: Plant response rating, Cocklebur [3, 23] | Plant response rating, Cocklebur [3, 24] | Plant response rating, Corn [4, 24] | Plant response rating, Morningglory [8, 24] | Plant response rating, Velvetleaf [11, 23] | Plant response rating, Velvetleaf [11, 24] | Plant response rating, Cocklebur ([14]; Rate 62 g/ha) | Plant response rating, Cocklebur ([14]; Rate 125 g/ha) | Plant response rating, Pigweed ([18]; preemergence, Rate 250 g/ha) | Plant response rating, Soybean ([19]; Rate 125 g/ha) | Plant response rating (0 to 100), Soybean ([19]; preemergence) | Plant response rating, Soybean ([19]; preemergence, Rate 250 g/ha)
100: Plant response rating, Surinam grass [1, 23] | Plant response rating, Barnyardgrass [2, 23] | Plant response rating, Barnyardgrass [2, 24] | Plant response rating, Crabgrass [5, 23] | Plant response rating, Crabgrass [5, 24] | Plant response rating, Foxtail, Giant [6, 23] | Plant response rating, Foxtail, Giant [6, 24] | Plant response rating, Lambsquarters [7, 23] | Plant response rating, Lambsquarters [7, 24] | Plant response rating, Morningglory [8, 23] | Plant response rating, Pigweed [9, 23] | Plant response rating, Pigweed [9, 24] | Plant response rating (0 to 100), Surinam grass ([12]; Rate 500 g/ha) | Plant response rating, Bermudagrass ([13]; Rate 62 g/ha) | Plant response rating, Bermudagrass ([13]; Rate 125 g/ha) | Plant response rating (0 to 100 where 0 is no effect and 100 is complete control), Bermudagrass ([13]; Rate 250 g/ha) | Plant response rating (0 to 100 where 0 is no effect and 100 is complete control), Bermudagrass ([13]; Rate 500 g/ha) | Plant response rating, Crabgrass ([15]; Rate 62 g/ha) | Plant response rating, Crabgrass ([15]; Rate 125 g/ha) | Plant response rating (0 to 100), Crabgrass ([15]; Rate 250 g/ha) | Plant response rating (0 to 100), Crabgrass ([15]; Rate 500 g/ha) | Plant response rating, Foxtail, Giant ([16]; Rate 62 g/ha) | Plant response rating, Foxtail, Giant ([16]; Rate 125 g/ha) | Plant response rating, Kochia ([17]; Rate 62 g/ha) | Plant response rating, Kochia ([17]; Rate 125 g/ha) | Plant response rating (0 to 100), Kochia ([17]; Rate 250 g/ha) | Plant response rating (0 to 100), Kochia ([17]; Rate 500 g/ha) | Plant response rating, Pigweed ([18]; Rate 125 g/ha) | Plant response rating (0 to 100), Pigweed ([18]; preemergence) | Plant response rating, Cupgrass, Woolly ([20]; Rate 125 g/ha) | Plant response rating (0 to 100), Cupgrass, Woolly ([20]; Rate 250 g/ha) | Plant response rating (0 to 100), Cupgrass, Woolly ([20]; Rate 500 g/ha)
30: Plant response rating, Sunflower [22]
50: Plant response rating, Surinam grass ([12]; Rate 62 g/ha) | Plant response rating, Cupgrass, Woolly ([20]; Rate 62 g/ha)

Cc1ccc(N2CCC(n3ccc(C(C)(C)C)n3)C2=O)cc1OC(F)F (centres unmarked) [Compound 79]
100: Plant response rating, Barnyardgrass [2, 23] | Plant response rating, Crabgrass [5, 23] | Plant response rating, Crabgrass [5, 24] | Plant response rating, Lambsquarters [7, 23] | Plant response rating, Lambsquarters [7, 24] | Plant response rating, Morningglory [8, 23] | Plant response rating, Pigweed [9, 23] | Plant response rating, Pigweed [9, 24] | Plant response rating (0 to 100), Surinam grass ([12]; Rate 500 g/ha) | Plant response rating, Bermudagrass ([13]; Rate 62 g/ha) | Plant response rating, Bermudagrass ([13]; Rate 125 g/ha) | Plant response rating (0 to 100 where 0 is no effect and 100 is complete control), Bermudagrass ([13]; Rate 250 g/ha) | Plant response rating (0 to 100 where 0 is no effect and 100 is complete control), Bermudagrass ([13]; Rate 500 g/ha) | Plant response rating, Crabgrass ([15]; Rate 62 g/ha) | Plant response rating, Crabgrass ([15]; Rate 125 g/ha) | Plant response rating (0 to 100), Crabgrass ([15]; Rate 250 g/ha) | Plant response rating (0 to 100), Crabgrass ([15]; Rate 500 g/ha) | Plant response rating, Kochia ([17]; Rate 62 g/ha) | Plant response rating, Kochia ([17]; Rate 125 g/ha) | Plant response rating (0 to 100), Kochia ([17]; Rate 250 g/ha) | Plant response rating (0 to 100), Kochia ([17]; Rate 500 g/ha) | Plant response rating (0 to 100), Pigweed ([18]; preemergence) | Plant response rating (0 to 100), Cupgrass, Woolly ([20]; Rate 250 g/ha) | Plant response rating (0 to 100), Cupgrass, Woolly ([20]; Rate 500 g/ha)
70: Plant response rating, Surinam grass [1, 24] | Plant response rating, Barnyardgrass [2, 24]
60: Plant response rating, Foxtail, Giant [6, 23] | Plant response rating (0 to 100), Surinam grass ([12]; Rate 250 g/ha)
90: Plant response rating, Surinam grass [1, 23] | Plant response rating, Rice [10, 23] | Plant response rating, Velvetleaf [11, 23] | Plant response rating, Cupgrass, Woolly ([20]; Rate 62 g/ha) | Plant response rating, Cupgrass, Woolly ([20]; Rate 125 g/ha) | Plant response rating (0 to 100), Nightshade [21]
10: Plant response rating, Pigweed ([18]; Rate 125 g/ha)
50: Plant response rating, Rice [10, 24] | Plant response rating (0 to 100), Soybean ([19]; preemergence) | Plant response rating, Sunflower [22]
30: Plant response rating (0 to 100), Cocklebur ([14]; Rate 500 g/ha)
20: Plant response rating, Surinam grass ([12]; Rate 125 g/ha) | Plant response rating, Pigweed ([18]; preemergence, Rate 250 g/ha)
0: Plant response rating, Cocklebur [3, 23] | Plant response rating, Cocklebur [3, 24] | Plant response rating, Corn [4, 23] | Plant response rating, Corn [4, 24] | Plant response rating, Foxtail, Giant [6, 24] | Plant response rating, Morningglory [8, 24] | Plant response rating, Velvetleaf [11, 24] | Plant response rating, Surinam grass ([12]; Rate 62 g/ha) | Plant response rating, Cocklebur ([14]; Rate 62 g/ha) | Plant response rating, Cocklebur ([14]; Rate 125 g/ha) | Plant response rating (0 to 100), Cocklebur ([14]; Rate 250 g/ha) | Plant response rating, Foxtail, Giant ([16]; Rate 62 g/ha) | Plant response rating, Foxtail, Giant ([16]; Rate 125 g/ha) | Plant response rating (0 to 100), Foxtail, Giant ([16]; Rate 250 g/ha) | Plant response rating (0 to 100), Foxtail, Giant ([16]; Rate 500 g/ha) | Plant response rating, Soybean ([19]; Rate 125 g/ha) | Plant response rating, Soybean ([19]; preemergence, Rate 250 g/ha)
